T1: Ta RhaD (rhamnose dehydrogenase) (Thermoplasma acidophilum, UniProt Q9HK58)
T1 sequence (Q9HK58 1-254): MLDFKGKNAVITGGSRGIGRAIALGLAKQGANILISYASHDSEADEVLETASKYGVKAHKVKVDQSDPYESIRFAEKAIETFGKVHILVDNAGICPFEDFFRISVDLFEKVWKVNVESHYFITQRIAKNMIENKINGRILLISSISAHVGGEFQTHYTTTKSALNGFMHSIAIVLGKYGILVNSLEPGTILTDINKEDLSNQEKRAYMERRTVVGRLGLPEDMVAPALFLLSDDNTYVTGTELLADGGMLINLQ


Assays:
[1] = target: T1, Ta RhaD (rhamnose dehydrogenase); assay: dehydrogenase activity, NADPH absorbance at […] nm; format: biochemical; settings: NADP+ co-substrate, 55 °C; read-out of refolding assay
[2] = target: the molecule itself; assay: SEC + native gel or EMSA; α (intraloop His6) and β co-expressed in E. coli; complexes purified to homogeneity as in ref. 29; integrity by Superose 6 Increase SEC (main peak ≅950 kDa) and native-PAGE 3–12% (≅1 MDa); subunit composition by Tris-Acetate SDS-PAGE (7%) of the purified proteins

| Molecule | dehydrogenase activity, NADPH absorbance at 340 nm [1] | stoichiometry N [2] |
| --- | --- | --- |
| C[C@@H]1OC(O)[C@H](O)[C@H](O)[C@H]1O (stereo partly drawn) [L-rhamnose] | RhaD catalyzes the NADP^+-dependent oxidation of L-rhamnose |  |
| Thermoplasma acidophilum thermosome α subunit D94E, with intraloop His6-tag (natural protein, Thermoplasma acidophilum thermosome α subunit, NCBI CAC12109; site-directed mutant of construct aK144HTTherm; also called Asp94α to a glutamate residue; not shown: His6, internal (intraloop), kept) MMTGQVPILVLKEGTQREQGKNAQRNNIEAAKAIADAVRTTLGPKGMDKMLVDSIGDIIISNDGATILKEMDVEHPTAKMIVEVSKAQDTAVGEGTTTAVVLSGELLKQAETLLDQGVHPTVISNGYRLAVNEARKIIDEIAEKSTDDATLRKIALTALSGKNTGLSNDFLADLVVKAVNAVAEVRDGKTIVDTANIKVDKKNGGSVNDTQFISGIVIDKEKVHSKMPDVVKNAKIALIDSALEIKKTEIEAKVQISDPSKIQDFLNQETNTFKQMVEKIKKSGANVVLCQKGIDDVAQHYLAKEGIYAVRRVKKSDMEKLAKATGAKIVTDLDDLTPSVLGEAETVEERKIGDDRMTFVMGCKNPKAVSILIRGGTDHVVSEVERALNDAIRVVAITKEDGKFLWGGGAVEAELAMRLAKYANSVGGREQLAIEAFAKALEIIPRTLAENAGIDPINTLIKLKAEHEKGRISVGVDLDNNGVGDMKAKGVVDPLRVKTHALESAVEVATMILRIDDVIASKKSTPPSGQGGQGQGMPGGGMPEY |  | 16 |

Source: paper PMC5983026, “Intraring allostery controls the function and assembly of a hetero-oligomeric class II chaperonin” (The FASEB Journal, 2018)
